Source: patent publication US20090215889A1, “Novel Use of Zinc Gluconate for Treating Hydradenitis Suppurativa” (LABCATAL, priority 2005, published 2009)
“And” between values parts separate entries of the source, which are not always exact repeats. Equal values may be shown once.

Legend:
[1] = tested on: suppurative hidradenitis; conditions: cited from earlier work
[2] = tested on: suppurative hidradenitis; conditions: oral; open study on 80 patients; cited from earlier work
[3] = tested on: suppurative hidradenitis; assay: clinical observation of oral zinc gluconate in 20 patients with suppurative hidradenitis; type: in vivo, human; set-up: key to Rep (response of the individual patient): CR: complete remission; PR: partial remission
Experimental: The efficacy of zinc gluconate in the treatment of suppurative hidradenitis was verified by the clinical observation performed on 20 patients, 16 of whom were monitored for a period of up to 24 months.
20 patients, 14 women and 6 men, from 23 to 72 years old, whose history of the disease ranged from 6 to 13 years, were placed on 90 mg of zinc gluconate per day for a period of a few months to 3 years.
In 34% of the cases, the location of the lesions was inguinal, axillary in 24% of the cases, and on the buttocks in 17% of the cases. The other affected regions in 5% to 7% of the cases were the chest, the pubis or the perineum.
“Dose 1” is the dose administered at the start of the treatment. “Dose 2” is the maintenance dose. The medical monitoring was generally from 4 to 8 months, and in a few cases it was extended beyond 12 months.

[4] = tolerance to oral zinc gluconate doses; type: in vivo, human; conditions: for example 90 mg/day
[5] = Vidal monograph, overdose section; cited from earlier work
[6] = of 20 patients, 90 mg zinc gluconate per day, monitoring for several months

Compound: CC(=O)O[C@]1(C(C)=O)CC[C@H]2[C@@H]3C=C(Cl)C4=CC(=O)[C@@H]5C[C@@H]5[C@]4(C)[C@H]3CC[C@@]21C [cyproterone acetate]
- efficacy ([1]; 100 mg/day of cyproterone acetate, small number of patients): efficacy only at large doses
- outcome on dose reduction ([1]; dose reduced to 50 mg): recurrence

Compound: CC1=C(/C=C/C(C)=C/C=C/C(C)=C\C(=O)O)C(C)(C)CCC1 [isotretinoin]
- results of treatment [2]: very mediocre results

Compound: zinc gluconate
- patients for whom the treatment proved to be ineffective ([3]; of 20 patients, 90 mg zinc gluconate per day): one
- patients showing a full remission of the disease [3, 6]: 9 patients
- patients showing a full remission of the disease (percentage) [3, 6]: 45%
- patients showing a partial remission [3, 6]: 6 patients
- patients showing a partial remission (percentage) [3, 6]: 30%
- efficacy in the treatment of suppurative hidradenitis ([3]; oral, 60 to 120 mg per day attack treatment, 15 to 90 mg per day maintenance treatment): satisfactory efficacy
- Rep (response of the individual patient) ([3]; patient (No. 1-20), oral, Dose 1 60-120 mg/day at start, Dose 2 maintenance, monitoring 3 to >12 months): PR (6×) and CR (9×) and ineff.
- observed side effects [4]: only digestive
- systemic toxicity [4]: no systemic toxicity to be feared
- tolerance ([4]; i.e. 6 gel capsules containing a 15 mg dose): usually good
- probability of an acute intoxication [5]: zero
